The values that follow are results of earlier work, collected in patent US8142802B2, “Insecticidal composition with enhanced synergistic activity” (priority 2003, dated 2012).

A value given as a limit tells only on which side of the number the result lay.

The conditions of this data set: at room temperature.

For `COP(=O)(NC(C)=O)SC` (stereo not shown) [Acephate], the solubility in acetone was greater than 100 mg/mL, the “solubility in aromatic solvents” value was less than 50 mg/mL, the solubility in ethanol is greater than 100 mg/mL and the solubility in water entry was “about 650 g/l”.
